Results: PubChem BioAssay AID248 (DTP/NCI, 2004)
“And” between values parts separate entries of the source, which are not always exact repeats. Identical values can stand only once. Inconclusive results and toxic doses are left out.

System: L1210 leukemia ip in BDF1 mice, survival T/C
Assay: NCI In Vivo Anticancer Drug Screen. Data for tumor model L1210 Leukemia (intraperitoneal) in B6D2F1 (BDF1) mice
Settings: endpoint: mean survival time, higher = longer survival
In short: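 Antitumor effect is assessed in tumor-bearing animals. Survival in the compound arm is compared with a vehicle-dosed control arm and expressed as their quotient.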

[1] = dose: 25.0 mg/kg/injection, schedule: Q04DX003 (ip), vehicle: Klucel (hydroxypropylcellulose) (HPC)
[2] = dose: 50.0 mg/kg/injection, schedule: Q04DX003 (ip), vehicle: Klucel (hydroxypropylcellulose) (HPC)
[3] = dose: 100.0 mg/kg/injection, schedule: Q04DX003 (ip), vehicle: Klucel (hydroxypropylcellulose) (HPC)
[4] = dose: 50.0 mg/kg/injection, schedule: Q01DX001 (ip), vehicle: carboxymethylcellulose (CMC)
[5] = dose: 100.0 mg/kg/injection, schedule: Q01DX001 (ip), vehicle: carboxymethylcellulose (CMC)
[6] = dose: 200.0 mg/kg/injection, schedule: Q01DX001 (ip), vehicle: carboxymethylcellulose (CMC)
[7] = dose: 400.0 mg/kg/injection, schedule: Q01DX001 (ip), vehicle: carboxymethylcellulose (CMC)
[8] = dose: 50.0 mg/kg/injection, schedule: Q01DX009 (ip), vehicle: Klucel (hydroxypropylcellulose) (HPC)
[9] = dose: 100.0 mg/kg/injection, schedule: Q01DX009 (ip), vehicle: Klucel (hydroxypropylcellulose) (HPC)
[10] = dose: 200.0 mg/kg/injection, schedule: Q01DX009 (ip), vehicle: Klucel (hydroxypropylcellulose) (HPC)
[11] = dose: 200.0 mg/kg/injection, schedule: Q04DX003 (ip), vehicle: Klucel (hydroxypropylcellulose) (HPC)
[12] = dose: 100.0 mg/kg/injection, schedule: Q04DX003 (ip), vehicle: saline
[13] = dose: 200.0 mg/kg/injection, schedule: Q04DX003 (ip), vehicle: saline
[14] = dose: 400.0 mg/kg/injection, schedule: Q04DX003 (ip), vehicle: saline
[15] = dose: 12.5 mg/kg/injection, schedule: Q01DX009 (ip), vehicle: Klucel (hydroxypropylcellulose) (HPC)
[16] = dose: 12.5 mg/kg/injection, schedule: Q04DX003 (ip), vehicle: Klucel (hydroxypropylcellulose) (HPC)
[17] = dose: 25.0 mg/kg/injection, schedule: Q01DX009 (ip), vehicle: Klucel (hydroxypropylcellulose) (HPC)
[18] = dose: 100.0 mg/kg/injection, schedule: Q01DX001 (ip), vehicle: saline
[19] = dose: 100.0 mg/kg/injection, schedule: Q01DX009 (ip), vehicle: saline with Tween-80
[20] = dose: 200.0 mg/kg/injection, schedule: Q01DX009 (ip), vehicle: saline with Tween-80
[21] = dose: 50.0 mg/kg/injection, schedule: Q04DX002 (ip), vehicle: Klucel (hydroxypropylcellulose) (HPC)

SMILES: CN(C)[C@@H]1C(=O)C(C(=O)NCc2nc3[nH]cnc(=S)c3[nH]2)=C(O)[C@@]2(O)C(=O)C3=C(O)c4c(O)cccc4[C@@](C)(O)[C@H]3C[C@@H]12
- T/C (dose: 16.0 mg/kg/injection, schedule: Q01DX Z (ip), vehicle: carboxymethylcellulose (CMC)): 107 % of control
- T/C (dose: 32.0 mg/kg/injection, schedule: Q01DX Z (ip), vehicle: carboxymethylcellulose (CMC)): 119 % of control
- T/C (dose: 56.0 mg/kg/injection, schedule: Q01DX Z (ip), vehicle: carboxymethylcellulose (CMC)): 103 % of control
- T/C (dose: 64.0 mg/kg/injection, schedule: Q01DX Z (ip), vehicle: carboxymethylcellulose (CMC)): 112 % of control
- T/C (dose: 128.0 mg/kg/injection, schedule: Q01DX Z (ip), vehicle: carboxymethylcellulose (CMC)): 150 % of control
- T/C (dose: 192.0 mg/kg/injection, schedule: Q01DX Z (ip), vehicle: carboxymethylcellulose (CMC)): 179 % of control

SMILES: N#Cc1ccc(S(=O)(=O)Cl)cc1
- T/C [1]: 95 % of control
- T/C [2]: 100 % of control
- T/C [3]: 93 % of control and 91 % of control

SMILES: O=C1C(=O)c2cc(Br)cc([N+](=O)[O-])c2-c2ccc(Br)cc21
- T/C [4]: 95 % of control
- T/C [5]: 106 % of control
- T/C [6]: 101 % of control
- T/C [7]: 97 % of control

SMILES: CCOC(=O)C(Cl)CCl (stereo not given)
- T/C [8]: 97 % of control
- T/C [9]: 100 % of control
- T/C [3]: 108 % of control
- T/C [10]: 104 % of control
- T/C [11]: 97 % of control

SMILES: CC1(C)CCSC(/C=C/c2ccccc2)=N1
- T/C [12]: 100 % of control
- T/C [13]: 102 % of control
- T/C [14]: 103 % of control

SMILES: c1ccc2c(c1)C1c3cccc[n+]3C2CC1n1c2ccccc2c2ccccc21 (stereo not given)
- T/C [15]: 106 % of control
- T/C [16]: 111 % of control
- T/C [17]: 106 % of control
- T/C [1]: 106 % of control
- T/C [2]: 91 % of control
- T/C [9]: 102 % of control
- T/C [12]: 93 % of control
- T/C [10]: 94 % of control
- T/C [13]: 98 % of control
- T/C (dose: 400.0 mg/kg/injection, schedule: Q01DX009 (ip), vehicle: Klucel (hydroxypropylcellulose) (HPC)): 94 % of control
- T/C [14]: 94 % of control

SMILES: O=C(O)c1cccc(F)c1C(=O)c1ccc2ccccc2c1 (tested in a mixture with another compound)
- T/C [3]: 105 % of control
- T/C [11]: 86 % of control

SMILES: Nc1c(Cl)c(Cl)nc(C(=O)O)c1Cl
- T/C (dose: 6.25 mg/kg/injection, schedule: Q01DX009 (ip), vehicle: Klucel (hydroxypropylcellulose) (HPC)): 98 % of control
- T/C [15]: 98 % of control
- T/C [8]: 100 % of control
- T/C [9]: 95 % of control
- T/C [10]: 97 % of control

SMILES: CCCCC(=O)N/N=C/c1cccc(OC)c1OC
- T/C [5]: 92 % of control
- T/C [6]: 92 % of control
- T/C [7]: 101 % of control

SMILES: CCOC(=O)N1N=C([P+](c2ccccc2)(c2ccccc2)c2ccccc2)CC1(c1ccccc1)c1ccccc1
- T/C (dose: 25.0 mg/kg/injection, schedule: Q01DX001 (ip), vehicle: saline): 98 % of control
- T/C (dose: 50.0 mg/kg/injection, schedule: Q01DX001 (ip), vehicle: saline): 104 % of control
- T/C [18]: 104 % of control

SMILES: c1ccc2c(c1)C1c3ccccc3C2C2COCC12 (stereo not given)
- T/C [8]: 113 % of control
- T/C [9]: 108 % of control
- T/C [3]: 98 % of control
- T/C [11]: 100 % of control

SMILES: Cc1nc(Cl)c(Cl)[nH]1
- T/C [19]: 97 % of control
- T/C [20]: 111 % of control

SMILES: CCCCc1ccc(NC(=O)N(CCCl)N=O)cc1
- T/C (dose: 6.0 mg/kg/injection, schedule: Q01DX009 (ip), vehicle: carboxymethylcellulose (CMC)): 156 % of control
- T/C (dose: 33.0 mg/kg/injection, schedule: Q01DX009 (ip), vehicle: carboxymethylcellulose (CMC)): 175 % of control
- T/C (dose: 37.5 mg/kg/injection, schedule: Q01DX001 (ip), vehicle: carboxymethylcellulose (CMC)): 163 % of control
- T/C (dose: 50.0 mg/kg/injection, schedule: Q01DX009 (ip), vehicle: carboxymethylcellulose (CMC)): 180 % of control
- T/C (dose: 75.0 mg/kg/injection, schedule: Q01DX001 (ip), vehicle: carboxymethylcellulose (CMC)): 194 % of control
- T/C (dose: 75.0 mg/kg/injection, schedule: Q01DX009 (ip), vehicle: carboxymethylcellulose (CMC)): 106 % of control
- T/C (dose: 75.0 mg/kg/injection, schedule: Q04DX003 (ip), vehicle: saline with Tween-80): 120 % of control
- T/C (dose: 112.5 mg/kg/injection, schedule: Q01DX009 (ip), vehicle: carboxymethylcellulose (CMC)): 87 % of control
- T/C (dose: 150.0 mg/kg/injection, schedule: Q01DX001 (ip), vehicle: carboxymethylcellulose (CMC)): 260 % of control

SMILES: Oc1ccccc1/C=N/Sc1ccccc1.Oc1ccccc1/C=N/Sc1ccccc1.[Cl][Pd][Cl]
- T/C (dose: 12.5 mg/kg/injection, schedule: Q04DX002 (ip), vehicle: Klucel (hydroxypropylcellulose) (HPC)): 90 % of control
- T/C (dose: 25.0 mg/kg/injection, schedule: Q04DX002 (ip), vehicle: Klucel (hydroxypropylcellulose) (HPC)): 101 % of control
- T/C [21]: 111 % of control

SMILES: O=C(C(c1ccccn1)=P(c1ccccc1)(c1ccccc1)c1ccccc1)c1ccc([N+](=O)[O-])cc1
- T/C [8]: 88 % of control
- T/C [9]: 91 % of control
- T/C [10]: 98 % of control

SMILES: CN(C(=O)c1n[nH]c2ccccc12)c1ccccc1
- T/C [21]: 101 % of control
- T/C (dose: 100.0 mg/kg/injection, schedule: Q04DX002 (ip), vehicle: Klucel (hydroxypropylcellulose) (HPC)): 108 % of control
- T/C (dose: 200.0 mg/kg/injection, schedule: Q04DX002 (ip), vehicle: Klucel (hydroxypropylcellulose) (HPC)): 101 % of control

SMILES: COc1c2ccoc2nc2ccc3c(c12)C=CC(C)(C)O3
- T/C [4]: 98 % of control
- T/C [5]: 104 % of control
- T/C [6]: 104 % of control
- T/C [7]: 98 % of control

SMILES: CC(=O)NC1C(OCc2ccccc2)OC(CO)C(O)C1OCc1ccccc1 (stereo not given)
- T/C (dose: 100.0 mg/kg/injection, schedule: Q01DX001 (ip), vehicle: saline with Tween-80): 100 % of control
- T/C (dose: 200.0 mg/kg/injection, schedule: Q01DX001 (ip), vehicle: saline with Tween-80): 107 % of control
- T/C (dose: 400.0 mg/kg/injection, schedule: Q01DX001 (ip), vehicle: saline with Tween-80): 96 % of control

SMILES: c1ccc(CCNc2ccnc3ccccc23)cc1
- T/C [15]: 103 % of control
- T/C [16]: 104 % of control
- T/C [17]: 101 % of control
- T/C [1]: 97 % of control
- T/C [2]: 95 % of control

SMILES: O=CC1=C(Cl)c2ccccc2CC1
- T/C (dose: 12.5 mg/kg/injection, schedule: Q04DX003 (ip), vehicle: acetone): 98 % of control

SMILES: CCCCC(=O)NS(=O)(=O)c1ccccc1
- T/C [19]: 92 % of control
- T/C (dose: 100.0 mg/kg/injection, schedule: Q04DX003 (ip), vehicle: saline with Tween-80): 94 % of control
- T/C [20]: 105 % of control
- T/C (dose: 200.0 mg/kg/injection, schedule: Q04DX003 (ip), vehicle: saline with Tween-80): 101 % of control
- T/C (dose: 400.0 mg/kg/injection, schedule: Q01DX009 (ip), vehicle: saline with Tween-80): 107 % of control
- T/C (dose: 400.0 mg/kg/injection, schedule: Q04DX003 (ip), vehicle: saline with Tween-80): 94 % of control

SMILES: Cc1c(C)c2c(c(C)c1O)SC(CC(=O)O)C(=O)O2 (stereo not given)
- T/C [3]: 100 % of control
- T/C [11]: 100 % of control
- T/C (dose: 400.0 mg/kg/injection, schedule: Q04DX003 (ip), vehicle: Klucel (hydroxypropylcellulose) (HPC)): 100 % of control

SMILES: O=C(/C=C\c1ccccc1)C(=O)/C=C/c1ccccc1
- T/C (dose: 25.0 mg/kg/injection, schedule: Q01DX009 (ip), vehicle: other): 93 % of control
- T/C [1]: 105 % of control
- T/C (dose: 50.0 mg/kg/injection, schedule: Q01DX009 (ip), vehicle: other): 98 % of control
- T/C [2]: 94 % of control
- T/C (dose: 100.0 mg/kg/injection, schedule: Q01DX001 (ip), vehicle: other): 89 % of control
- T/C [3]: 86 % of control

SMILES: O=S(=O)(/C=C(/Br)c1ccccc1)c1ccccc1
- T/C [18]: 92 % of control
- T/C (dose: 200.0 mg/kg/injection, schedule: Q01DX001 (ip), vehicle: saline): 97 % of control
- T/C (dose: 400.0 mg/kg/injection, schedule: Q01DX001 (ip), vehicle: saline): 95 % of control
